According to publication PMC5773487, “Harnessing insulin- and leptin-induced oxidation of PTP1B for therapeutic development” (Nature Communications, 2018):

Target: T1, PTP1B-OX : TRX1 trapping mutant complex (Homo sapiens, UniProt P18031)
T1 sequence (P18031 1-321 limits assumed): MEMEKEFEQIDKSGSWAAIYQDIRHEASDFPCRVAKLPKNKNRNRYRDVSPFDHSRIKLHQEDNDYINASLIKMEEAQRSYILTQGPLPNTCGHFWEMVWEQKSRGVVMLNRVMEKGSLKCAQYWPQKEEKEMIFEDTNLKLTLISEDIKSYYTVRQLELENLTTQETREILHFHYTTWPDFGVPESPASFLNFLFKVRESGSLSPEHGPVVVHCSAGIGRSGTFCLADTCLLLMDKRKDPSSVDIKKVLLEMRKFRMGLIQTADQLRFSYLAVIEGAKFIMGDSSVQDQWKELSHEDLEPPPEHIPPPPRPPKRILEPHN
Assay: in vitro substrate trapping of PTP1B by thioredoxin trapping mutant
Type: biochemical
Settings: chelerythrine 5 μM
Excerpt: Thioredoxin (TRX), which functions to reduce oxidized cysteines in target proteins, contains an essential CXXC motif, in which the first cysteine forms a mixed disulfide intermediate with an oxidized cysteine in the target protein. The second cysteine then serves a “resolving” function—it forms a disulfide bond with the first cysteine in the CXXC motif, with the resulting transfer of electrons leading to reduction of the target protein. We utilized an assay using a “trapping mutant” form of thioredoxin in which the second cysteine is mutated to serine, which stabilizes the mixed disulfide intermediate with the target substrate.
Recombinant variants of N-terminally His-tagged human TRX1 (0.1 mg, WT, and trapping mutant, C35S) were reduced with 20 mM DTT in 1 mL PBS on ice for 30 min, then desalted on a Sephadex PD-10 column. Ten μg each of TRX1-WT and TRX1-C35S proteins was used in the trapping experiment. PTP1B (40 μg ml^−1) was incubated with H2O2 (0, 0.1 and 0.5 mM) for 10 min at room temperature and excess H2O2 was removed by desalting. Reduced and oxidized forms of PTP1B (20 μg) were incubated with WT or trapping mutant TRX1 for 20 min at room temperature in the absence and presence of chelerythrine (5 μM) in 1 mL PBS. Ni-NTA beads were added and incubated for 1 h at 4 °C. […]

COc1ccc2c(c[n+](C)c3c4cc5c(cc4ccc23)OCO5)c1OC [chelerythrine]
complex formation between PTP1B-OX and thioredoxin substrate trapping mutant: did not prevent complex formation
